Assay results from ChEMBL document CHEMBL5550194, “Design and synthesis of phosphoryl-substituted steroidal pyridazines (Pho-STPYRs) as potent estrogen receptor alpha inhibitors: targeted treatment of hormone-dependent breast cancer cells” (RSC Med Chem, 2024).
Active and inactive are the calls of the source. The calls are words filed in the database; no cut-off is given here.

Experiments:
MDA-MB-231 [1] = assay: Antiproliferative activity against estrogen-independent human MDA-MB-231 cells assessed as inhibition of cell growth by MTT assay; assay type: functional, cell-based
MCF7 [2] = assay: Antiproliferative activity against estrogen-responsive human MCF7 cells assessed as inhibition of cell growth by MTT assay; assay type: functional, cell-based
MDA-MB-231 [3] = assay: Antiproliferative activity against human MDA-MB-231 cells assessed as inhibition of cell growth incubated for 72 hrs by MTT assay; assay type: functional, cell-based; details: MDA-MB-231, 72 h
Cytochrome P450 7A1 [4] = target: T1, Cytochrome P450 7A1 (Homo sapiens, UniProt P22680); assay: Binding affinity to recombinant human CYP7A1 assessed as substrate-type binding by measuring dissociation constant by spectrophotometric titration method; assay type: ADME
MCF7 [5] = assay: Antiproliferative activity against human MCF7 cells assessed as inhibition of cell growth incubated for 72 hrs by MTT assay; assay type: functional, cell-based; details: MCF7, 72 h
Cytochrome P450 7B1 [6] = target: T2, Cytochrome P450 7B1 (Homo sapiens, UniProt O75881); assay: Binding affinity to recombinant human CYP7B1 assessed as substrate-type binding by measuring dissociation constant by spectrophotometric titration method; assay type: ADME
T2 sequence (O75881 whole entry): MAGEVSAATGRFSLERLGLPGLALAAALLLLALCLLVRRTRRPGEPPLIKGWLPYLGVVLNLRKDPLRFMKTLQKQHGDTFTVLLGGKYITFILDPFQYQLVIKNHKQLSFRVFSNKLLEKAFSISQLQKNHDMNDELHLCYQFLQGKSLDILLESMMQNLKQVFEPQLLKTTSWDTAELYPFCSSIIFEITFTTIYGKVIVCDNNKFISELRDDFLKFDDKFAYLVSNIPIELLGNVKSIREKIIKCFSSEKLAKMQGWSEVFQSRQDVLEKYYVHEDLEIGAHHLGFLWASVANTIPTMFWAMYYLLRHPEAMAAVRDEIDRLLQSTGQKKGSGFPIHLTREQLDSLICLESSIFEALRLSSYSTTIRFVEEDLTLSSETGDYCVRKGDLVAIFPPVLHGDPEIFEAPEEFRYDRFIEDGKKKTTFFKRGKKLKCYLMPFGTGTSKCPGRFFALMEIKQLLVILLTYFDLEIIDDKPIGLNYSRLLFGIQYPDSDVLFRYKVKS

Cytochrome P450 7B1 [7] = target: T2, Cytochrome P450 7B1; assay: Binding affinity to recombinant human CYP7B1 by spectrophotometric titration method; assay type: ADME; details: recombinant enzyme
[8] = target: T3, Steroid 17-alpha-hydroxylase/17,20 lyase (Homo sapiens, UniProt P05093); assay: Binding affinity to recombinant human CYP17A1 by spectrophotometric titration method; assay type: ADME; details: recombinant enzyme
T3 sequence (P05093 whole entry): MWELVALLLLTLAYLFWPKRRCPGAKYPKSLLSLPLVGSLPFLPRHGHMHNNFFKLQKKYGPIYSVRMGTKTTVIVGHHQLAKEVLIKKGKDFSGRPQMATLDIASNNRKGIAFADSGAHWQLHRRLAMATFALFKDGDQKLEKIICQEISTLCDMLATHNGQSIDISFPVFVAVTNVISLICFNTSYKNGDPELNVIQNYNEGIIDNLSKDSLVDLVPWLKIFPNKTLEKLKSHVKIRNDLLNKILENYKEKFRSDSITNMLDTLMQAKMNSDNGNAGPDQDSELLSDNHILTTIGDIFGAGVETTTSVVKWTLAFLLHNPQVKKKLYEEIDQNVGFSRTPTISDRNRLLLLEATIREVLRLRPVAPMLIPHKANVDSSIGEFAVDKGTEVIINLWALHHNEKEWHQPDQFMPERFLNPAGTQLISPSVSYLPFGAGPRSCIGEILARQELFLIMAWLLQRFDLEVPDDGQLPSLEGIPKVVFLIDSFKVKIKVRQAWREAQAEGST

MCF7 [9] = assay: Induction of cell death in human MCF7 cells assessed as accumulation of cleaved PARP level at 1.7 to 15 uM measured after 48 hrs by immunoblot analysis; assay type: functional, cell-based; details: dose 1.7-15 µM
[10] = Cytotoxicity against human THP-1 cells assessed as inhibition of cell growth incubated for 72 hrs by MTT assay; assay type: toxicity, cell-based
MCF7 [11] = assay: Anti-estrogenic activity in human MCF7 cells assessed as reduction in GREB1 protein expression at 1.7 to 15 uM measured after 48 hrs by immunoblot analysis; assay type: functional, cell-based; details: dose 1.7-15 µM
[12] = Selectivity index, ratio of IC50 for human THP-1 cells to IC50 for human MCF7 cells
Steroid 21-hydroxylase = target: T4, Steroid 21-hydroxylase (Homo sapiens, UniProt P08686); assay: Binding affinity to recombinant human CYP21A2 by spectrophotometric titration method; assay type: ADME; details: recombinant enzyme
T4 sequence (P08686 whole entry): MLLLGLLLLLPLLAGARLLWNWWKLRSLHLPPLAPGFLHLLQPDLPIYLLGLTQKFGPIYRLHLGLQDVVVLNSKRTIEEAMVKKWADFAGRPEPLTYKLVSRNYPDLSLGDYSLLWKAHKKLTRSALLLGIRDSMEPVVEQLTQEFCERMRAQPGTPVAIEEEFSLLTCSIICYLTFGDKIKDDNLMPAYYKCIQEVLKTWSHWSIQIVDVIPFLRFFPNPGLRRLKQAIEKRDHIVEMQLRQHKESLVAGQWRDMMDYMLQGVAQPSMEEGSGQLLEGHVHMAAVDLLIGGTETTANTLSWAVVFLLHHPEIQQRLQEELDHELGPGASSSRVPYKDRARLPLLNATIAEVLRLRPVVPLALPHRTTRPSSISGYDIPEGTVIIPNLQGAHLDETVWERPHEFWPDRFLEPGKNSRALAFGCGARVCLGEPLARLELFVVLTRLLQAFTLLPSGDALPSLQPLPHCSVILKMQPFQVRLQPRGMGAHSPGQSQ

Cytochrome P450 7A1 [13] = target: T1, Cytochrome P450 7A1; assay: Binding affinity to recombinant human CYP7A1 by spectrophotometric titration method; assay type: ADME; details: recombinant enzyme
MCF7 [14] = assay: Anti-estrogenic activity in human MCF7 cells assessed as reduction in ERalpha protein expression at 1.7 to 15 uM measured after 48 hrs by immunoblot analysis; assay type: functional, cell-based; details: dose 1.7-15 µM
Aromatase = target: T5, Aromatase (Homo sapiens, UniProt P11511); assay: Binding affinity to recombinant human CYP19A1 by spectrophotometric titration method; assay type: ADME; details: recombinant enzyme
T5 sequence (P11511 whole entry): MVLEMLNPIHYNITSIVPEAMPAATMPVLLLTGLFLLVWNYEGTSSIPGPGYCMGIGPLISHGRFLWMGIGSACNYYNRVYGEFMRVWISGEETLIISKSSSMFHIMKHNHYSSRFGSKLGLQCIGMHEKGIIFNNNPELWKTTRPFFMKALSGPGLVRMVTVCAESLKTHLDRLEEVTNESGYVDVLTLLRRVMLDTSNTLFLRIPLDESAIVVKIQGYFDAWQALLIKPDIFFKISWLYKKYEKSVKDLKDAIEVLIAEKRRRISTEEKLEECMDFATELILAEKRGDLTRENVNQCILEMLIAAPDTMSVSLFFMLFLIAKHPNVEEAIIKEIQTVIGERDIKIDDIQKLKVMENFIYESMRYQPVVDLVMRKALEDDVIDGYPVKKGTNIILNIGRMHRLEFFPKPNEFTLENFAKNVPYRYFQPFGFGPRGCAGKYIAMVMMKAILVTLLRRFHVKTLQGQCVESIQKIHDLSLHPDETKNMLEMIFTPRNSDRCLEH

MCF7 [15] = assay: Downregulation of PCNA protein level in human MCF7 cells at 15 uM measured after 48 hrs by immunoblot analysis; assay type: functional, cell-based
MCF7 [16] = assay: Anti-estrogenic activity in human MCF7 cells transfected with luciferase gene under control of estrogen response elements cotransfected with beta-galactosidase assessed as reduction in 17beta-estradiol induced ERalpha protein expression by measuring reduction in luciferase activity measured after 24 hrs; assay type: functional, cell-based; details: dose 1.7-20 µM
MCF7 [17] = assay: Effect on E-cadherin protein expression in human MCF7 cells at 1.7 to 15 uM measured after 48 hrs by immunoblot analysis; assay type: functional, cell-based; details: dose 1.7-15 µM
MCF7 [18] = assay: Downregulation of cyclin D1 protein expression in human MCF7 cells at 1.7 to 15 uM measured after 48 hrs by immunoblot analysis; assay type: functional, cell-based; details: dose 1.7-15 µM
MCF7 [19] = assay: Induction of cell death in human MCF7 cells assessed as reduction in Bcl-2 protein expression measured after 48 hrs by immunoblot analysis; assay type: functional, cell-based; details: dose 1.7-15 µM
MCF7 [20] = assay: Synergistic antiproliferative activity against human MCF7 cells assessed as reduction in cell viability at 2.4 uM incubated for 72 hrs in presence of AKT inhibitor IV 6-(2-benzothiazolyl)-1-ethyl-2-[2-(methylphenylamino)ethenyl]-3-phenyl-1H-benzimidazolium mono iodide by MTT assay; assay type: functional, cell-based
MCF7 [21] = assay: Downregulation of CDK4 protein expression in human MCF7 cells at 1.7 to 15 uM measured after 48 hrs by immunoblot analysis; assay type: functional, cell-based; details: dose 1.7-15 µM
MCF7 [22] = assay: Effect on activated AKT protein level in human MCF7 cells at 1.7 to 15 uM measured after 48 hrs by immunoblot analysis; assay type: functional, cell-based; details: dose 1.7-15 µM

T1 sequence (P22680 whole entry): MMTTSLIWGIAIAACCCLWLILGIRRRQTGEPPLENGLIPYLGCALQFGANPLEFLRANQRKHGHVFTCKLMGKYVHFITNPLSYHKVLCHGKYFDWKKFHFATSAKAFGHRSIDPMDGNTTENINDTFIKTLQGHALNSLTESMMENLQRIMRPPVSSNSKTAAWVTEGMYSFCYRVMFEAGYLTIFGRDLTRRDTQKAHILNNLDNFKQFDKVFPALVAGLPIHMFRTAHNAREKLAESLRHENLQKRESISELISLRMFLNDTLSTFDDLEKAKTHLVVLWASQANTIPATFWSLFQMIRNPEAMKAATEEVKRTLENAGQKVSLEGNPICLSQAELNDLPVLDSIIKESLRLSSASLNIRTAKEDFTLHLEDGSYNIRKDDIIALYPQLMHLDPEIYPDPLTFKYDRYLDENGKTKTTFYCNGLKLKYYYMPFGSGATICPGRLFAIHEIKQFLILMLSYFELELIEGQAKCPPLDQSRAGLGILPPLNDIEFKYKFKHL

## COc1ccc(NC(=O)c2nncc3c2[C@@]2(C)CC[C@H]4[C@@H](CC=C5C[C@@H](OC(C)=O)CC[C@@]54C)[C@@H]2C3)cc1
MDA-MB-231 [1]
  IC50: 12.5 µM

## CC(=O)O[C@H]1CC[C@@]2(C)C(=CC[C@@H]3[C@@H]2CC[C@]2(C)c4c(cnnc4C(=O)Nc4ccc(C(F)(F)F)cc4)C[C@@H]32)C1
MCF7 [2]
  IC50: 4.9 µM

## CC(C)(C)NP(=O)(NC(C)(C)C)c1nncc2c1CC1CC[C@H]3[C@@H]4CC[C@H](O)[C@@]4(C)CC[C@@H]3[C@@]1(C)C2 (stereo partly specified)
MDA-MB-231 [3]
  IC50: > 25 µM
Cytochrome P450 7A1 [4]
  Kd: 2.1 µM
MCF7 [5]
  IC50: 22.1 µM
Cytochrome P450 7B1 [6]
  Kd: 1.7 µM

## C[C@]12CCC(=O)C=C1CC[C@@H]1[C@@H]2CC[C@]2(C)c3c(cnnc3P(=O)(Nc3ccccc3)Nc3ccccc3)C[C@@H]12
Cytochrome P450 7B1 [7]
  Activity: Not Active
[8]
  Activity: Not Active
MDA-MB-231 [3]
  IC50: 22 µM
MCF7 [9]
  Activity: Active
[10]
  IC50 at 72 h: > 50 µM
MCF7 [11]
  Activity: Active
[12]
  Ratio IC50: >8.5
Steroid 21-hydroxylase
  Activity: Not Active
Cytochrome P450 7A1 [13]
  Activity: Not Active
MCF7 [14]
  Activity: Active
Aromatase
  Activity: Not Active
MCF7 [15]
  Activity: Active
MCF7 [16]
  Activity: Dose-Dependent Effect
MCF7 [17]
  Activity: inactive
MCF7 [5]
  IC50: 5.9 µM
MCF7 [18]
  Activity: Active
MCF7 [19]
  Activity: Dose-Dependent Effect
MCF7 [20]
  Activity: Active
MCF7 [21]
  Activity: Active
MCF7 [22]
  Activity: inactive
